Drawing on article PMC7026418, “The kinase polypharmacology landscape of clinical PARP inhibitors” (Scientific Reports, 2020), this text covers percent of control binding for four compounds.

Some targets named below: BMPR1B (Homo sapiens, UniProt O00238); BUB1 (Homo sapiens, UniProt O43683); PIM2 (Homo sapiens, UniProt Q9P1W9); RET(V804L) (Homo sapiens, UniProt P07949, V804L); WNK3 (Homo sapiens, UniProt Q9BYP7).
What all share (assay): biochemical
What all share (design): DiscoveRx KINOMEscan active site-directed competition binding; percent of control kinase bound to immobilised ligand

Experiment [1] concerns the target T1, ABL1(Q252H)-nonphosphorylated (Homo sapiens, UniProt P00519, Q252H).
T1 construct: nonphosphorylated

In the next experiment the target is T2, MLK1 (Homo sapiens, UniProt P80192).
T2 construct: gene MAP3K9

The target of another experiment is T3, MYO3B (Homo sapiens, UniProt Q8WXR4).
T3 sequence (Q8WXR4 1-1341): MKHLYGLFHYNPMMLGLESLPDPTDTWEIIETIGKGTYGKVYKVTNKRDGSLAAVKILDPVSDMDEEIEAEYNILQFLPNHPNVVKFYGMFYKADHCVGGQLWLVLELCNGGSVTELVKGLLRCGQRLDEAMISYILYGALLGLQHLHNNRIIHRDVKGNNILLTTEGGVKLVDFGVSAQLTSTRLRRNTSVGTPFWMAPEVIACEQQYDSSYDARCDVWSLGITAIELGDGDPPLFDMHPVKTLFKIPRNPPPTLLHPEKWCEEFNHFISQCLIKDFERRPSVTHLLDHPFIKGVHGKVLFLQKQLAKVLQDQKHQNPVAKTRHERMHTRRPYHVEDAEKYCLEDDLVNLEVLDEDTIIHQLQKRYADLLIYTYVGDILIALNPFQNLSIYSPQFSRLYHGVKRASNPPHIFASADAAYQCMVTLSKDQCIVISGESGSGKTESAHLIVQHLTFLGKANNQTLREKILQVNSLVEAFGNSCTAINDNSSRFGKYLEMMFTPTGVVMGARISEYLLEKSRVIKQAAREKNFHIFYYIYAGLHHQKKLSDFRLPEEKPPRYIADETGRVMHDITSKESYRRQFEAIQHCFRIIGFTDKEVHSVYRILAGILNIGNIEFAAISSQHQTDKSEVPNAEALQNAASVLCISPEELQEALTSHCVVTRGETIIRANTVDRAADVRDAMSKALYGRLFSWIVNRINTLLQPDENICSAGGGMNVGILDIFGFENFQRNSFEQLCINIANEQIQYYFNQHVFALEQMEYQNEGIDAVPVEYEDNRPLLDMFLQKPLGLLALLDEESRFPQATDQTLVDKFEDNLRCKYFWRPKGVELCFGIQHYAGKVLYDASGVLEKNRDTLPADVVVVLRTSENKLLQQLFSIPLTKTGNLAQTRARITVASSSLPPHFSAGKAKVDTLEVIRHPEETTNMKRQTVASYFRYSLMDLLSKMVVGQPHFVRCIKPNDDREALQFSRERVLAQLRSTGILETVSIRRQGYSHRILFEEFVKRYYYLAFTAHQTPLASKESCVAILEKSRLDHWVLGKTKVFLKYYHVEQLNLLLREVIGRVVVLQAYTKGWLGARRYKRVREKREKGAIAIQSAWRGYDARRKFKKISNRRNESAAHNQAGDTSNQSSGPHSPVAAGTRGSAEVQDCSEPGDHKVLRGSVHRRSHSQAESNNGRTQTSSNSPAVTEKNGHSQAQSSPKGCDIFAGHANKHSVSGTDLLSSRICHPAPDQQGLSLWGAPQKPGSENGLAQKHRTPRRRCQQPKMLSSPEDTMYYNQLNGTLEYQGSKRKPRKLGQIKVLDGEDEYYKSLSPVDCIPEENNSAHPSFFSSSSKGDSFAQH

In a further experiment the target is T4, PYK2 (Homo sapiens, UniProt Q14289).
T4 construct: gene PTK2B

For the next experiment, the target named is T5, SIK (Homo sapiens, UniProt P57059).
T5 construct: gene SIK1

The target in the next experiment is T6, ULK3 (Homo sapiens, UniProt Q6PHR2).
T6 sequence (Q6PHR2 1-472): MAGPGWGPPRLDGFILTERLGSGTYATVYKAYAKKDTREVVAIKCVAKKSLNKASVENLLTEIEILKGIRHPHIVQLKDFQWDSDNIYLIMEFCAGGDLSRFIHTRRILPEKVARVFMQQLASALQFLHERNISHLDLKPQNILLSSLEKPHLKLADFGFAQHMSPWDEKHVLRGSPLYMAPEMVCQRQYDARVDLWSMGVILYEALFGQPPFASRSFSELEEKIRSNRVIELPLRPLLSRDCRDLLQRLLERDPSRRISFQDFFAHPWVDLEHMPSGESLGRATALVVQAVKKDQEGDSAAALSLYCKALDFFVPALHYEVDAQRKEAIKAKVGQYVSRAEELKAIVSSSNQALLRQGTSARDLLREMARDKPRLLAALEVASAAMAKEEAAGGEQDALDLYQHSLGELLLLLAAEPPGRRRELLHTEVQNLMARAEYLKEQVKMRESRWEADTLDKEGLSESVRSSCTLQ

The mark [2] stands for this setting: read-out: Niraparib (MK-4827) / %Ctrl @ 10000nM.
The mark [3] stands for this setting: read-out: Talazoparib (BMN 673) / %Ctrl @ 10000nM.
Where [4] appears, read: read-out: Rucaparib / %Ctrl @ 10000nM, binding competition, % of control.
[5] abbreviates: read-out: Olaparib / %Ctrl @ 10000nM.

Read-outs that look alike come from different tables or passages of the source.

T5 sequence (P57059 whole entry): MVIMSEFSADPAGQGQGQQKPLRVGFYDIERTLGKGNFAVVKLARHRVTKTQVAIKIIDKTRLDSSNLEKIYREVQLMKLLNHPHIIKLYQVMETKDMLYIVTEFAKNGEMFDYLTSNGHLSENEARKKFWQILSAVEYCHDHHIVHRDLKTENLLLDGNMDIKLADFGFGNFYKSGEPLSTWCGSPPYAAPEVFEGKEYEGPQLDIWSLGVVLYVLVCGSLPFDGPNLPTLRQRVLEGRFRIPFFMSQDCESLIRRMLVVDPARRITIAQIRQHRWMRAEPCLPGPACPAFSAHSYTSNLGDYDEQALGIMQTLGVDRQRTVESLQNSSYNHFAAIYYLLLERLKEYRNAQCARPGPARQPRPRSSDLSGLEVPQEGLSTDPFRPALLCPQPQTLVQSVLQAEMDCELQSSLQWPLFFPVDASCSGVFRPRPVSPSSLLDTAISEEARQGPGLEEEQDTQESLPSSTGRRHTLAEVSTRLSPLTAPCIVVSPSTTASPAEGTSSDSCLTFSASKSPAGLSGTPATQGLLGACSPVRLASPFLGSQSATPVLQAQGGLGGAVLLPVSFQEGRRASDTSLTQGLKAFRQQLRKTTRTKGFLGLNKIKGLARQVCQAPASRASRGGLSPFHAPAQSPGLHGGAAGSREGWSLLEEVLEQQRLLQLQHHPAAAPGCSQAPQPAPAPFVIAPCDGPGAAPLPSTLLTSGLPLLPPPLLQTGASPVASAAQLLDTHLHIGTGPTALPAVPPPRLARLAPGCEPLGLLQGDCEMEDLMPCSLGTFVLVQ
PIM2, sequence (Q9P1W9 whole entry): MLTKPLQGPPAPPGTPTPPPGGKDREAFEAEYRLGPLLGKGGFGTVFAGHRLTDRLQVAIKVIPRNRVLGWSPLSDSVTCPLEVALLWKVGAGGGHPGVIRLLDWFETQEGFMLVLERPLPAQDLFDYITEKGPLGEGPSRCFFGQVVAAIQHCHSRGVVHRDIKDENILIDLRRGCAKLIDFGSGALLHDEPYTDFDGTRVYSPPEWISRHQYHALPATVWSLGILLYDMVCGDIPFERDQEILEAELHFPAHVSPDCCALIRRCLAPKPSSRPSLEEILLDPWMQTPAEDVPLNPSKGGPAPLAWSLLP
RET(V804L), sequence (P07949 whole entry V804L): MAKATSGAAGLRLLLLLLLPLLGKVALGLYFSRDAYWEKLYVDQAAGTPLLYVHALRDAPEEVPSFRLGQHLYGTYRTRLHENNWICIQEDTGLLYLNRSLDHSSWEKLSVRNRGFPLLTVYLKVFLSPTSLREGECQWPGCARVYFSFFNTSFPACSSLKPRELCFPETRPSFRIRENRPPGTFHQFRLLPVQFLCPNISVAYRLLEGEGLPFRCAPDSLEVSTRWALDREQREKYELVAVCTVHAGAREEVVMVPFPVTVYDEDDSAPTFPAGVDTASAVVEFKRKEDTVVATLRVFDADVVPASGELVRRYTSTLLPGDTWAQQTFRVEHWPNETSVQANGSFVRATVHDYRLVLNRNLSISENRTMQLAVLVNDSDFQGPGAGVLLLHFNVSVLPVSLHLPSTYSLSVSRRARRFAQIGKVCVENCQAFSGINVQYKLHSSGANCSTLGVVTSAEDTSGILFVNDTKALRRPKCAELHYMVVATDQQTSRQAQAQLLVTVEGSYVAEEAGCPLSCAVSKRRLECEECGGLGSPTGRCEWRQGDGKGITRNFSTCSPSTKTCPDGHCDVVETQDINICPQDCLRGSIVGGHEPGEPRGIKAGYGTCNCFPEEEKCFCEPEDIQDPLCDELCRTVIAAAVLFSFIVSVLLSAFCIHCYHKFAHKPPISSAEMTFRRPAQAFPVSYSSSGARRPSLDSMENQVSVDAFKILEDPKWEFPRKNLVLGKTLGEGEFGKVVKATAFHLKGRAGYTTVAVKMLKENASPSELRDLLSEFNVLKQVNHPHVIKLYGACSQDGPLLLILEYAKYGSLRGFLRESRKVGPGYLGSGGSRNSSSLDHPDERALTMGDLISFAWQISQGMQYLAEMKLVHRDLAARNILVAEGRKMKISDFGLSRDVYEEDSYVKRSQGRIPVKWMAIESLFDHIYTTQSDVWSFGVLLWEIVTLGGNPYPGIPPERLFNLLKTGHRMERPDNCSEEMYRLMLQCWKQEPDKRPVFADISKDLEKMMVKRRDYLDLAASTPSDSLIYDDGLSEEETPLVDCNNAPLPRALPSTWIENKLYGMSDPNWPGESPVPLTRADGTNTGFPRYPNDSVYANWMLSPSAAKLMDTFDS
BUB1, sequence (O43683 whole entry): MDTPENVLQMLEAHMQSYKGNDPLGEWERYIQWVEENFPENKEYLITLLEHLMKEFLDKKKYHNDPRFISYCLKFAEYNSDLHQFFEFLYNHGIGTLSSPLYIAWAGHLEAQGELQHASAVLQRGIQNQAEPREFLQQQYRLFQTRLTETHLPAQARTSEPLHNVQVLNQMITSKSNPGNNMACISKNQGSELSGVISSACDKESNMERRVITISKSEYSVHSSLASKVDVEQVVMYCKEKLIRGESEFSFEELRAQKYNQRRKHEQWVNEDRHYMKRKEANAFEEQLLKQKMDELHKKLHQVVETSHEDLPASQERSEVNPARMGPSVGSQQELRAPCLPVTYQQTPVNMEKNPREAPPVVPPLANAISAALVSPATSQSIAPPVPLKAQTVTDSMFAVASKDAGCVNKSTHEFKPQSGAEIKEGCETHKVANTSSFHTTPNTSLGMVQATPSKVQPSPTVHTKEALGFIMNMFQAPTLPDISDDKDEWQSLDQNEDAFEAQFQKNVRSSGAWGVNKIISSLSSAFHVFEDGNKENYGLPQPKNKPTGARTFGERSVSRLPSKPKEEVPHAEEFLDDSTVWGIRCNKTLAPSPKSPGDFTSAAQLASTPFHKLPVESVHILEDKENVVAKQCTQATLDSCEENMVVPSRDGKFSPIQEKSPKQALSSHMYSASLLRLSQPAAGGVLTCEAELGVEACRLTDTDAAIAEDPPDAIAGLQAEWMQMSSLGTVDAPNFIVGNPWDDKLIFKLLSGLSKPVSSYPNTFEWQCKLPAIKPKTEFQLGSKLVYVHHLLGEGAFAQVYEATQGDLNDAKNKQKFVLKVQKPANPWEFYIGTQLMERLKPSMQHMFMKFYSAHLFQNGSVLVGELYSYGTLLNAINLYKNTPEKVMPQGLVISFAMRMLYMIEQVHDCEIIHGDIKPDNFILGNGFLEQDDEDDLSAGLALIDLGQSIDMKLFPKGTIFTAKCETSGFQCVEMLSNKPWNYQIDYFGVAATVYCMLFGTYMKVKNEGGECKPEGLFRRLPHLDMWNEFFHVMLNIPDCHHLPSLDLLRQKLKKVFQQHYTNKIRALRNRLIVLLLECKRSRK
T4 sequence (Q14289 whole entry): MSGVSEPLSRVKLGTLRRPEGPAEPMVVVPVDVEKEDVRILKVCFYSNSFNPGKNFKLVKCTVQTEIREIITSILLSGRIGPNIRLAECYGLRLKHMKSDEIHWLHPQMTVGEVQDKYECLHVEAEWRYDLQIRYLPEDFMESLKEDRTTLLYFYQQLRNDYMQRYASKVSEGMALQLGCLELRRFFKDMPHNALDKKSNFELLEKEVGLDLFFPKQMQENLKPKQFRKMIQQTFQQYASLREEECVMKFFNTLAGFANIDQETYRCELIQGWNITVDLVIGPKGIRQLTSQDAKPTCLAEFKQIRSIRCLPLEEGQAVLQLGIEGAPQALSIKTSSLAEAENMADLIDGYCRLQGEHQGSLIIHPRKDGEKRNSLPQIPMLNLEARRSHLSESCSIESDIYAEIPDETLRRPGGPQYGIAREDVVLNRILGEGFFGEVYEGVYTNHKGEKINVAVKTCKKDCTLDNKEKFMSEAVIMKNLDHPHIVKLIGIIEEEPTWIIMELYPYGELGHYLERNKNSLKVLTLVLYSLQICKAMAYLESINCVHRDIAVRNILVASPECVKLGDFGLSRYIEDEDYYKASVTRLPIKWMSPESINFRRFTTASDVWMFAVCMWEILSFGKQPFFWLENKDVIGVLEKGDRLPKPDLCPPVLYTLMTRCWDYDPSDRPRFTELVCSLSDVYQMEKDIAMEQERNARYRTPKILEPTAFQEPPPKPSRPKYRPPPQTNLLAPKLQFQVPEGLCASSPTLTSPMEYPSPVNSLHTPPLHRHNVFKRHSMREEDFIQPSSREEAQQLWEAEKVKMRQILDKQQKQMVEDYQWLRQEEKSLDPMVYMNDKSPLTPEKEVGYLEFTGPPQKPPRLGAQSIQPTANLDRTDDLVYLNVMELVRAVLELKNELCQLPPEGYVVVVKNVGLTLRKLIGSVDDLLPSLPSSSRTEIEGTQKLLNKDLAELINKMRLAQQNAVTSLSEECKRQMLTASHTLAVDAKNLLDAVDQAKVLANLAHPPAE
BMPR1B, sequence (O00238 whole entry): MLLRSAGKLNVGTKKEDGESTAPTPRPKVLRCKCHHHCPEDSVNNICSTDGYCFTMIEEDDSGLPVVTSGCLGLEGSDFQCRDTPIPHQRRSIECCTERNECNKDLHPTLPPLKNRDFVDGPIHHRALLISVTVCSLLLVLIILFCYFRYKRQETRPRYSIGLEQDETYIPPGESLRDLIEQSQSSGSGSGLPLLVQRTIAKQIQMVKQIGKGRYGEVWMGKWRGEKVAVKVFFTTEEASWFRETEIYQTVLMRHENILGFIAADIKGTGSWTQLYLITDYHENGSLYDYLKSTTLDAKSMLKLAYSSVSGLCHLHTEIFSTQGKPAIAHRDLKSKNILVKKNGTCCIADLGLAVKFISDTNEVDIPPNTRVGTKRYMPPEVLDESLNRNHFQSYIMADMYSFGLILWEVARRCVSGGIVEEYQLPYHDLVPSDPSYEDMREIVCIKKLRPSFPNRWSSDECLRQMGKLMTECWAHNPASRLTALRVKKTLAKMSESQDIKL

`NC(=O)c1cccc2cn(-c3ccc([C@@H]4CCCNC4)cc3)nc12` [Niraparib]: the percent of control binding at 10 µM stood at 58% in experiment [1] (setting [2]); 87% at BMPR1B (setting [2]); 97% at BUB1 (setting [2]); 87% at MLK1 (setting [2]); 56% on MYO3B (setting [2]); 13% on PIM2 (setting [2]). Moreover, the percent of control binding at 10 µM was 86% on PYK2 (setting [2]); 92% on RET(V804L) (setting [2]); 93% on SIK (setting [2]); 100% at ULK3 (setting [2]); 100% on WNK3 (setting [2]).

Take `Cn1ncnc1[C@H]1c2n[nH]c(=O)c3cc(F)cc(c23)N[C@@H]1c1ccc(F)cc1` [Talazoparib]: the percent of control binding at 10 µM in experiment [1] (setting [3]) worked out at 73%; on BMPR1B (setting [3]), 100%; at BUB1 (setting [3]), 100%; on MLK1 (setting [3]), 77%; on MYO3B (setting [3]), 97%; at PIM2 (setting [3]), 98%. Also, the percent of control binding at 10 µM worked out at 97% on PYK2 (setting [3]); 96% on RET(V804L) (setting [3]); 78% at SIK (setting [3]); 84% at ULK3 (setting [3]); 100% at WNK3 (setting [3]).

Consider `CNCc1ccc(-c2[nH]c3cc(F)cc4c3c2CCNC4=O)cc1` [Rucaparib], for which the percent of control binding at 10 µM in experiment [1] (setting [4]) was 62%; at BMPR1B (setting [4]) it was 80%; on BUB1 (setting [4]), 48%; on MLK1 (setting [4]) it was 100%; on MYO3B (setting [4]), 62%; at PIM2 (setting [4]), 36%. The percent of control binding at 10 µM came to 100% at PYK2 (setting [4]); 95% at RET(V804L) (setting [4]); 87% at SIK (setting [4]); 70% at ULK3 (setting [4]); 86% at WNK3 (setting [4]).

With `O=C(c1cc(Cc2n[nH]c(=O)c3ccccc23)ccc1F)N1CCN(C(=O)C2CC2)CC1` [Olaparib], the percent of control binding at 10 µM in experiment [1] (setting [5]) was 98%; on BMPR1B (setting [5]) it was 81%; on BUB1 (setting [5]), 83%; on MLK1 (setting [5]), 100%; on MYO3B (setting [5]), 75%; at PIM2 (setting [5]), 100%. In addition, the percent of control binding at 10 µM on PYK2 (setting [5]) was 99%; at RET(V804L) (setting [5]) it was 100%; at SIK (setting [5]), 95%; at ULK3 (setting [5]), 80%; on WNK3 (setting [5]), 88%.
